Assay results as given in patent publication US4439606A, “Antiatherosclerotic 1-piperazinecarbonyl compounds” (American Cyanamid Company, priority 1982, dated 1984).

Experiments:
[1] = molecular target: T1, fatty acyl CoA:-cholesterol acyl transferase (ACAT) (Rattus norvegicus, UniProt O70536); experiment: Inhibition of enzymatic esterification of cholesterol (ACAT inhibition), rat adrenal supernatant; assay type: biochemical; conditions: final concentration 5.2 μg./ml., 37° C., 30 minutes
T1 construct: The supernatant, containing the microsomal fraction, served as the source of the cholesterol-esterifying enzyme; from tissue; host or cells: rat adrenals, 1000 x g supernatant containing the microsomal fraction
T1 sequence (O70536 1-545): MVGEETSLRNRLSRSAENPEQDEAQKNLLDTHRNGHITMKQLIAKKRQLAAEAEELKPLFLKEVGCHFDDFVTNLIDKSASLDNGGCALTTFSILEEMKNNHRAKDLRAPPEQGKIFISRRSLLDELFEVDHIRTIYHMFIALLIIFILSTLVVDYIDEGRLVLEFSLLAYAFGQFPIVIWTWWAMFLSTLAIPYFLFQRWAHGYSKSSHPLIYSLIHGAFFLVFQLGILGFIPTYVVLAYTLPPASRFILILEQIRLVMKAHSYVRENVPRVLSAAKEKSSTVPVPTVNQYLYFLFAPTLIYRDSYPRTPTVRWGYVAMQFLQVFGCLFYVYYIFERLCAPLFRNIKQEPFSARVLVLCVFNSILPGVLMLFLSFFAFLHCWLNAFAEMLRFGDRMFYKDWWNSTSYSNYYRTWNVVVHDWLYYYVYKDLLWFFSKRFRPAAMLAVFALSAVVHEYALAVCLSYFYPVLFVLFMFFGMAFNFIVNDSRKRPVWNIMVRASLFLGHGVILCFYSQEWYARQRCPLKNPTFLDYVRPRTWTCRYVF
Protocol: The compounds of the present invention were tested for their ability to inhibit the enzymatic esterification of cholesterol according to the procedure of Hashimoto, et al., Life Sci., 12(Part II), 1-12 (1973).
Rat adrenals were homogenized in 0.2 M monobasic potassium phosphate buffer, pH 7.4, and centrifuged at 1000 times gravity for 15 minutes at 5° C. The supernatant, containing the microsomal fraction, served as the source of the cholesterol-esterifying enzyme, fatty acyl CoA:-cholesterol acyl transferase (ACAT). A mixture comprising 50 parts of adrenal supernatant, 10 parts of bovine serum albumin (50 mg./ml.), 3 parts of test compound (final concentration 5.2 μg./ml.) and 500 parts of buffer were preincubated at 37° C. for 10 minutes, following which 20 parts of oleoyl […] were added and the final mixture was incubated at 37° C. for 30 minutes. A control mixture, omitting the test compound, was prepared and treated in the same manner. The lipids from the incubation mixture were extracted into an organic solvent and separated by thin-layer chromatography. The cholesterol ester fraction was counted in a scintillation counter. A statistically significant inhibition of the ACAT enzyme is the criterion for activity.

aortic sterol content = experiment: Decrease of aortic sterol content without effecting serum sterol in cholesterol-fed cockerels; assay type: in vivo, Day-old Cockerels; design: key: Active: Compounds which statistically decrease the aortic sterol content without having an effect on serum sterol are considered to be active; conditions: 525 mg. test compound and 20 g. cholesterol per kg. of diet, 14 days
Protocol: The compounds were further tested for their ability to decrease aortic sterol content without effecting serum sterol.
Day-old Cockerels were placed on diets consisting of pullet starter mash supplemented with either 20 g. cholesterol (control group) or 20 g. cholesterol and 525 mg. test compound (drug-treated group) per kg. of diet.
For the control diet, 20 g. of cholesterol was dissolved in 200 ml. of chloroform, mixed into one kg. of pullet starter mash and then the choloroform was removed by evaporation.
For the drug-treatment group, 525 mg. of the test compound was dissolved in 100 ml. of chloroform, mixed into a diet prepared as described above and then the chloroform was evaporated.
The cockerels were housed three per cage and given water and their respective diet ad libitum for 14 days. Blood was collected by cardiac puncture and the serum was saponified [Trinder, P., Analyst, 77, 321 (1952)] and extracted and the cholesterol content determinted [Zlatkis, A., et al., J. Lab Clin Med., 41 486 (1953)]. The aortae were removed, cleaned of adventitial tissue and the sterol content determined according to the above procedures. Compounds which statistically decrease the aortic sterol content without having an effect on serum sterol are considered to be active.

[2] = test system: serum cholesterol and triglyceride; experiment: Lowering of serum lipid levels, oral administration in diet to rats; assay type: in vivo, male rats COBS, CD, SD strain; conditions: 0.1% of test compound by weight in diet, 5 days, vs control rats
Protocol: The compounds were also tested for their ability to lower lipid levels in mammals. The compounds were administered orally admixed with diet to groups of four male rats COBS, CD, SD strain from Charles River Breeding Laboratories, Inc., Wilmington, Mass. A control group of eight rats was maintained on the diet alone; test groups were maintained on the diet plus 0.1% of test compound by weight. After 5 days treatment, serum cholesterol and triglyceride concentrations were determined by direct enzymatic procedures using a Centrifichem® System 400 autoanalyzer (Union Carbide Co.). Cholesterol concentrations were determined by the combined cholesterol esterasecholesterol oxidase procedure of Roeschlau, et al., Zeit. Klin. Chem. Klin. Biochem., 12, 226 (1974). Triglycerides were determined by the combined method of lipase catalyzed hydrolysis of triglycerides to glycerol and free fatty acids [Bucolo, G. and David, H., Clin. Chem., 19, 476 (1973) and Wahlefeld, A. W., in "Methods of Enzymatic Analysis," Vol, 4, Bergmeyer, H. D., Editor, Academic Press, New York, N.Y. (1974), pp. 1831-1835] and the enzymatic oxidation of the glycerol which leads to the production of colored formazan [Stavropoulos, W. S. and Crouch, R. D., Clin. Chem., 20, No. 7, 857 (1974)]. […] The compounds are considered active if they produce a statistically significant lowering of either sterol or triglycerides.

Compound	inhibition at 5.2 µg/mL [1] [%]	Result (decrease of aortic sterol content without effect on serum sterol) (aortic sterol content)	% Lowering of Serum Triglycerides [2] [%]
O=C(Cc1ccc([N+](=O)[O-])cc1)N1CCN(c2cnccn2)CC1 [1-(p-Nitrophenylacetyl)-4-(2-pyrazinyl)piperazine]	36.4	Active	
O=C(Cc1ccccc1)N1CCN(c2ccccc2)CC1 [1-phenyl-4-phenylacetylpiperazine, 1-Phenyl-4-phenylacetylpiperazine]	34.6	Active	
Cc1ccccc1CC(=O)N1CCN(c2cnccn2)CC1 [1-(o-Methylphenylacetyl)-4-(2-pyrazinyl)piperazine]		Active	
O=C(Cc1ccc(Cl)c(Cl)c1)N1CCN(c2cnccn2)CC1 [1-(3,4-Dichlorophenylacetyl)-4-(2-pyrazinyl)piperazine]	38.3	Active	
Cc1ccc(CC(=O)N2CCN(c3cnccn3)CC2)cc1 [1-(2-Pyrazinyl)-4-(p-tolylacetyl)piperazine]		Active	49
O=C(c1ccccc1C(F)(F)F)N1CCN(c2cnccn2)CC1 [1-(2-Pyrazinyl)-4-(α,α,α-trifluoro-o-toluoyl)piperazine]		Active	
